biological target: Fc-E-cadherin chimeric protein; assay: BIAcore binding of peptide modulating agents to captured Fc-E-cadherin; details: absence of calcium
Protocol: The binding of representative peptide modulating agents to Fc-E-cadherin chimeric protein in either the presence (3 mM CaCl2) or absence of calcium was assessed using a BIAcore X™ Biosensor (Pharmacia Ltd., Sweden). Protein A was immobilized on the flow cells of a CM 5 sensor chip using a standard amine coupling method. The surfaces were activated with a 7 min injection of NHS/EDC, followed by a 7 min injection of protein A in 10 mM acetate pH 5.0 at a concentration of 50 ug/mL and blocked with a 7 min injection of […] ethanolamine, pH 8.2. […] Next, Fc-E-cadherin was injected over the protein A surface to be captured on the sensor chip.
To test compound binding to these surfaces, candidate modulating agents were injected in a three-fold dilution series over the Fc-E-cadherin-coated surfaces using six concentrations and each concentration was repeated twice.

Row | Substance | KD Fc-ECAD no Ca++
1 | PWVIPP [H-PWVIPP-NH2] | no binding
2 | AWVIPP [H-AWVIPP-NH2] | no binding
3 | DWVIPP [H-DWVIPP-NH2] | no binding
4 | DWVIPA [H-DWVIPA-NH2] | no binding
5 | DWVIAP [H-DWVIAP-NH2] | no binding
6 | DWVAPP [H-DWVAPP-NH2] | no binding

tested on: SKOV3 human ovarian cancer cells; assay: Disruption of confluent SKOV3 monolayers (microscopic examination); assay type: cell-based; details: 1 mg/ml of culture medium, 24 hours
Protocol: We investigated the effects of the linear peptide ADH254 (H-DWVIPP-NH2; classical cadherin derived peptide) on confluent cultures of SKOV3 cells. SKOV3 human ovarian cancer cells express N-cadherin. The cells were cultured in minimum essential medium (MEM) supplemented with 10% fetal calf serum, non-essential amino acids, fungizone, penicillin-streptomycin, and gentamicin in a humidified atmosphere (5% CO2) at 37° C. All culture reagents were purchased from GIBCO (Burlington, ON). ADH254 (1 mg/ml of culture medium) was added to confluent cultures of SKOV3 cells. After 24 hours of treatment, the cells were fixed with 4% paraformaldehyde, followed by 3 washes with phosphate buffered saline, and then stained with hematoxylin. Control cultures were grown in the absence of peptide.
The peptide caused the SKOV3 cells to detach from one another and adopt an elongated, fibroblast-like morphology. These observations indicate that Trp containing peptides can disrupt cell adhesion.

Row | Substance | disruption of confluent SKOV3 monolayers
7 | DWVIPP [H-DWVIPP-NH2] | caused disruption of the confluent SKOV3 monolayers
